What follows are molecules tested against T1, recombinant human plasminogen activator inhibitor-1 (PAI-1) (Homo sapiens, UniProt P05121) (assay: Screening for PAI-1 inhibition (residual tPA activity, Spectrozyme-tPA chromogenic substrate)). Conditions: test compound at 100 Um; pH 6.6 buffer, 140 nM PAI-1, 70 nM tPA.
T1 construct: purchased Molecular Innovations, Royal Oak, Mich
Format: biochemical
In short: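 PAI-1 at 140 nM, pH 6.6 buffer, preincubated 1 h at room temperature with compound (1-100 μM final, ≤0.2% DMSO), then 70 nM tPA added for 30 min. Residual tPA activity read by Spectrozyme-tPA absorbance at 405 nm at 0 and 60 min. Inhibition taken as residual tPA activity.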

T1 sequence (P05121 24-402): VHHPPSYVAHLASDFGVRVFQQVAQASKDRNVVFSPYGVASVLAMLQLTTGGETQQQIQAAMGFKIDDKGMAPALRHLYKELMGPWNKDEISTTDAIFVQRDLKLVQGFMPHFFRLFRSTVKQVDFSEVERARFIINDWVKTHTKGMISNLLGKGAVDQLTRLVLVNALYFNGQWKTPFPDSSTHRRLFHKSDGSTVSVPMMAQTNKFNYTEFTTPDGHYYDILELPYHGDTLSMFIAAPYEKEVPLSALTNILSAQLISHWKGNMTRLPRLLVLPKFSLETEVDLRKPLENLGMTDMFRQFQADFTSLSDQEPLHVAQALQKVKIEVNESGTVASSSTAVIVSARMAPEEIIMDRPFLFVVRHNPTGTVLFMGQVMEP

Row | SMILES | inhibition at 100 µM
1 | O=C(O)CO/N=C/c1ccc(-c2cccc(OCc3c(Cl)cccc3Cl)c2)cc1 [Compound 101, {[((1E)-{3′-[(2,6-dichlorobenzyl)oxy]-1,1′-biphenyl-4-yl}methylidene)amino]oxy}acetic acid] | 10%
2 | CC(C)(C)c1ccc(COc2ccc(-c3ccc(/C=N/OCC(=O)O)cc3)cc2)cc1 [Compound 102, {[((1E)-{4′-[(4-tert-butylbenzyl)oxy]-1,1′-biphenyl-4-yl}methylidene)amino]oxy}acetic acid] | 26%
3 | O=C(O)CO/N=C/c1ccc(-c2ccc(OCc3cccc(Br)c3)cc2)cc1 [Compound 103, {[((1E)-{4′-[(3-bromobenzyl)oxy]-1,1′-biphenyl-4-yl}methylidene)amino]oxy}acetic acid] | 62%
4 | O=C(O)CO/N=C/c1ccc(-c2ccc(OCc3cccc(Cl)c3)cc2)cc1 [Compound 104, {[((1E)-{4′-[(3-chlorobenzyl)oxy]-1,1′-biphenyl-4-yl}methylidene)amino]oxy}acetic acid] | 5%
5 | O=C(O)CO/N=C/c1ccc(-c2ccc(OCc3ccccc3)cc2)cc1 [Compound 105, [({(1E)-[4′-(benzyloxy)-1,1′-biphenyl-4-yl]methylidene}amino)oxy]acetic acid] | 5%
6 | O=C(O)CO/N=C/c1ccc(-c2ccc(OCc3cccc(C(F)(F)F)c3)cc2)cc1 [Compound 106, ({[(1E)-(4′-{[3-(trifluoromethyl)benzyl]oxy}-1,1′-biphenyl-4-yl)methylidene]amino}oxy)acetic acid] | 8%
7 | O=C(O)CO/N=C/c1ccc(-c2ccc(OCc3ccccc3Cl)cc2)cc1 [Compound 107, {[((1E)-{4′-[(2-chlorobenzyl)oxy]-1,1′-biphenyl-4-yl}methylidene)amino]oxy}acetic acid] | 30%
8 | O=C(O)CO/N=C/c1ccc(-c2ccc(OCc3ccc(Cl)c(Cl)c3)cc2)cc1 [Compound 108, {[((1E)-{4′-[(3,4-dichlorobenzyl)oxy]-1,1′-biphenyl-4-yl}methylidene)amino]oxy}acetic acid] | 58%
9 | Cc1ccc(COc2ccc(-c3ccc(/C=N/OCC(=O)O)cc3)cc2)cc1 [Compound 109, {[((1E)-{4′-[(4-methylbenzyl)oxy]-1,1′-biphenyl-4-yl}methylidene)amino]oxy}acetic acid] | 7%
10 | Cc1cccc(COc2ccc(-c3ccc(/C=N/OCC(=O)O)cc3)cc2)c1 [Compound 110, {[((1E)-{4′-[(3-methylbenzyl)oxy]-1,1′-biphenyl-4-yl}methylidene)amino]oxy}acetic acid] | 6%
11 | O=C(O)CO/N=C/c1ccc(-c2ccc(OCc3c(Cl)cccc3Cl)cc2)cc1 [Compound 111, {[((1E)-{4′-[(2,6-dichlorobenzyl)oxy]-1,1′-biphenyl-4-yl}methylidene)amino]oxy}acetic acid] | 38%
12 | CC(C)(C)c1ccc(COc2ccc(/C=N/OCC(=O)O)cc2OCc2ccc(C(C)(C)C)cc2)cc1 [Compound 112, {[((1E)-{3,4-bis[(4-tert-butylbenzyl)oxy]phenyl}methylidene)amino]oxy}acetic acid] | 65%
13 | O=C(O)CO/N=C/c1ccc(OCc2ccc(F)cc2)c(OCc2ccc(F)cc2)c1 [Compound 113, {[((1E)-{3,4-bis[(4-fluorobenzyl)oxy]phenyl}methylidene)amino]oxy}acetic acid] | 91%

Continued, values first:

Row | inhibition at 100 µM | SMILES
14 | 93% | O=C(O)CO/N=C/c1ccc(OCc2ccc(C(F)(F)F)cc2)c(OCc2ccc(C(F)(F)F)cc2)c1 [Compound 114, ({[(1E)-(3,4-bis{[4-(trifluoromethyl)benzyl]oxy}phenyl)methylidene]amino}oxy)acetic acid]
15 | 87% | O=C(O)CO/N=C/c1ccc(OCc2ccc(Br)cc2)c(OCc2ccc(Br)cc2)c1 [Compound 115, {[((1E)-{3,4-bis[(4-bromobenzyl)oxy]phenyl}methylidene)amino]oxy}acetic acid]
16 | 92% | O=C(O)CO/N=C/c1ccc(OCc2cccc(Cl)c2)c(OCc2cccc(Cl)c2)c1 [Compound 116, {[((1E)-{3,4-bis[(3-chlorobenzyl)oxy]phenyl}methylidene)amino]oxy}acetic acid]
17 | 88% | O=C(O)CO/N=C/c1ccc(OCc2cccc(Br)c2)c(OCc2cccc(Br)c2)c1 [Compound 117, {[((1E)-{3,4-bis[(3-bromobenzyl)oxy]phenyl}methylidene)amino]oxy}acetic acid]
18 | 92% | Cc1cccc(COc2ccc(/C=N/OCC(=O)O)cc2OCc2cccc(C)c2)c1 [Compound 118, {[((1E)-{3,4-bis[(3-methylbenzyl)oxy]phenyl}methylidene)amino]oxy}acetic acid]
19 | 93% | O=C(O)CO/N=C/c1ccc(OCc2cccc(C(F)(F)F)c2)c(OCc2cccc(C(F)(F)F)c2)c1 [Compound 119, ({[(1E)-(3,4-bis{[3-(trifluoromethyl)benzyl]oxy}phenyl)methylidene]amino}oxy)acetic acid]
20 | 78% | Cc1ccc(COc2ccc(/C=N/OCC(=O)O)cc2OCc2ccc(C)cc2)cc1 [Compound 120, {[((1E)-{3,4-bis[(4-methylbenzyl)oxy]phenyl}methylidene)amino]oxy}acetic acid]
21 | 72% | O=C(O)CO/N=C/c1ccc(OCc2ccc(F)c(F)c2)c(OCc2ccc(F)c(F)c2)c1 [Compound 121, {[((1E)-{3,4-bis[(3,4-difluorobenzyl)oxy]phenyl}methylidene)amino]oxy}acetic acid]
22 | 87% | Cc1ccc(COc2ccc(/C=N/OCC(=O)O)c(OCc3ccc(C)cc3)c2)cc1 [Compound 122, {[((1E)-{2,4-bis[(4-methylbenzyl)oxy]phenyl}methylidene)amino]oxy}acetic acid]
23 | 72% | O=C(O)CO/N=C/c1ccc(OCc2ccc(F)cc2)cc1OCc1ccc(F)cc1 [Compound 123, {[((1E)-{2,4-bis[(4-fluorobenzyl)oxy]phenyl}methylidene)amino]oxy}acetic acid]
24 | 95% | O=C(O)CO/N=C/c1ccc(OCc2ccc(C(F)(F)F)cc2)cc1OCc1ccc(C(F)(F)F)cc1 [Compound 124, ({[(1E)-(2,4-bis{[4-(trifluoromethyl)benzyl]oxy}phenyl)methylidene]amino}oxy)acetic acid]
25 | 90% | O=C(O)CO/N=C/c1ccc(OCc2ccc(Br)cc2)cc1OCc1ccc(Br)cc1 [Compound 125, {[((1E)-{2,4-bis[(4-bromobenzyl)oxy]phenyl}methylidene)amino]oxy}acetic acid]
26 | 77% | CC(C)(C)c1ccc(COc2ccc(/C=N/OCC(=O)O)c(OCc3ccc(C(C)(C)C)cc3)c2)cc1 [Compound 126, {[((1E)-{2,4-bis[(4-tert-butylbenzyl)oxy]phenyl}methylidene)amino]oxy}acetic acid]
27 | 88% | O=C(O)CO/N=C/c1ccc(OCc2cccc(Cl)c2)cc1OCc1cccc(Cl)c1 [Compound 127, {[((1E)-{2,4-bis[(3-chlorobenzyl)oxy]phenyl}methylidene)amino]oxy}acetic acid]
28 | 91% | O=C(O)CO/N=C/c1ccc(OCc2cccc(Br)c2)cc1OCc1cccc(Br)c1 [Compound 128, {[((1E)-{2,4-bis[(3-bromobenzyl)oxy]phenyl}methylidene)amino]oxy}acetic acid]

— US7411083B2, “Substituted acetic acid derivatives” (Wyeth, priority 2003, dated 2008)
